The source made the active and inactive calls.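 Rule for the calls: active = compounds whose half-maximal inhibitory concentration in the worm GFP to RFP ratio test is 5 micromolar or lower; inactive = the rest.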

The subject of the assay is C. elegans VP596 Pgst-4::GFP/RFP ratio, acrylamide, 24 h. Kind of assay: SKN-1 inhibitor analog confirmation in worms, SAR follow-up, whole organism, GFP/RFP fluorescence ratio, round 2 (AID 652265).
For `CCOc1cc(CN2CCCCC2)cc(Cl)c1OCc1ccc(Cl)cc1`, the IC50 (as a rule, the point on the concentration scale where inhibition reaches its midpoint) is 0.495 µM. For the compound `Clc1ccc(COc2c(Cl)cc(CNC3CCCC3)cc2Cl)cc1`, the IC50 is 0.928 µM. For `CCOc1cc(CN2CCN(C)CC2)cc(Cl)c1OCc1ccc(F)cc1` the value was 6.01 µM (inactive); for `CCOc1cc(CN(C)C2CCCC2)cc(Cl)c1OCc1ccc(Cl)cc1`, 0.423 µM; for `CCOc1cc(CNC2CC2)cc(Cl)c1OCc1ccc(Cl)cc1F`, 0.516 µM. Next, `CCOc1cc(CNC2CCCC2)cc(Cl)c1OCc1ccc(Br)cc1`: 0.425 µM; `CCOc1cc(CN2CCOCC2)cc(Cl)c1OCc1ccc(Cl)cc1`: 1.74 µM; `CCOc1cc(CNC2CCCC2)cc(Cl)c1OCc1ccc(C#N)cc1`: 0.4 µM.

Regarding `CCOc1cc(CNC)cc(Cl)c1OCc1ccc(Cl)cc1`, the IC50 is > 64 µM (inactive). With `Cc1cc(CNC2CCCC2)cc(C)c1OCc1ccc(Cl)cc1`, the IC50 was 1.14 µM. Next, `CCOc1cc(CN2CCOCC2)cc(Cl)c1OCc1ccc(F)cc1`: 8.89 µM (inactive); `CCOc1cc(CNC2CCCC2)cc(Cl)c1OCc1ccc(Cl)cc1F`: 0.863 µM. For `COc1cc(CNC2CCCC2)cc(Cl)c1OCc1ccc(Cl)cc1` the value was 0.329 µM.

Take `CCOc1cc(CNC2CC2)cc(Cl)c1OCc1ccc(Br)cc1`: the IC50 is 0.227 µM. Next, `CCOc1cc(CNC2CC2)cc(Cl)c1OCc1ccc(C#N)cc1`: 1.56 µM; `CCOc1cc(CN2CCCCC2)cc(Cl)c1OCc1ccc(F)cc1`: 0.432 µM. For `CCOc1cc(CNCC2CC2)cc(Cl)c1OCc1ccc(Cl)cc1` the value was 6.73 µM (inactive). Take `CCOc1cc(CN(C(C)=O)C2CCCC2)cc(Cl)c1OCc1ccc(Cl)cc1`: the IC50 was > 64 µM (inactive). `CCOc1cc(CN2CCN(C)CC2)cc(Cl)c1OCc1ccc(Cl)cc1`: the IC50 is 3.42 µM. For the compound `CCOc1cc(CN2CCCC2)cc(Cl)c1OCc1ccc(F)cc1`, the IC50 was 21.4 µM (inactive). `C=CCNCc1cc(Cl)c(OCc2ccc(Cl)cc2)c(OCC)c1`: the IC50 is 12.3 µM (inactive).

As to `C#CCNCc1cc(Cl)c(OCc2ccc(Cl)cc2)c(OCC)c1`, the IC50 is 8.14 µM (inactive). Take `CCCNCc1cc(Cl)c(OCc2ccc(Cl)cc2)c(OCC)c1`: the IC50 is 8.68 µM (inactive). With `CCOc1cc(CNC2CC2)cc(Cl)c1OCc1ccc(Cl)cc1`, the IC50 is 0.512 µM. Regarding `COc1cc(CNC2CCCC2)cc(F)c1OCc1ccc(Cl)cc1`, the IC50 is 1.22 µM.

For the compound `CCOc1cc(CN2CCCC2)cc(Cl)c1OCc1ccc(Cl)cc1`, the IC50 is 3.96 µM.

Regarding `COc1cc(CNC2CCCC2)cc(Br)c1OCc1ccc(Cl)cc1`, the IC50 is 0.771 µM.

Source of the values: PubChem BioAssay AID652265 (Sanford-Burnham Center for Chemical Genomics, 2013).
